According to US9296778B2, “3′,5′-cyclic phosphate prodrugs for HCV infection” (Idenix Pharmaceuticals, Inc., priority 2012, dated 2016):
Where two headings read alike, the source gives them in different places.

Experiments:
cathepsin A (CatA) = target: T1, cathepsin A (CatA) (Homo sapiens, UniProt P10619); assay: CatA hydrolysis assay; format: in vitro ADME
T1 construct: purchased R & D Systems (Minneapolis, Minn.)
T1 sequence (P10619 29-326 limits assumed): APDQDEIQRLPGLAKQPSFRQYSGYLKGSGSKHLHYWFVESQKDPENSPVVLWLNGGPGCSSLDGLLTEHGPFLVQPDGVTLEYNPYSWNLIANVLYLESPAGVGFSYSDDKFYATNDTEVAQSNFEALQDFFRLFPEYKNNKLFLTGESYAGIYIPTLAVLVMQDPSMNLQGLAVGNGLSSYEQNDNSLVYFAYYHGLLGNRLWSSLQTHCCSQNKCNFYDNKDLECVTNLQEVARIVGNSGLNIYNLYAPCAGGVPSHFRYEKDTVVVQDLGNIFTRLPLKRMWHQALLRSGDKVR
T1 sequence (P10619 327-480 limits assumed): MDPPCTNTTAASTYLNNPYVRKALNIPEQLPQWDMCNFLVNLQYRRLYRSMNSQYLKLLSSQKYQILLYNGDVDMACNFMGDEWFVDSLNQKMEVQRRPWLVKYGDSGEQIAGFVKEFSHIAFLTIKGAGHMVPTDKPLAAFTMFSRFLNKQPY
Procedure: CatA, cathepsin L (CatL) and CES1 were purchased from R & D Systems (Minneapolis, Minn.). Prior to the enzymatic hydrolysis reactions, CatA was activated according to the manufacturer's instruction. Briefly, CatA (0.05 μg/μL) was incubated with CatL (0.005 μg/μL) for 30 min at 37° C. in 25 mM MES pH 6.0 containing 5 mM DTT. The reaction was stopped by addition of the CatL specific inhibitor E64 (10 μM).
The CatA assay was performed at 37° C. The reaction mixture contained 25 mM MES buffer pH 6.0, 100 mM NaCl, 4 mM DTT and 100 μM of the compound. The reaction was started by addition of the activated CatA enzyme to a final concentration of 0.005 μg/μL. One hundred-μL aliquots were taken after 0.5 min, 3 hrs and 18 hrs of incubation. Reactions were stopped by mixing the sample with an equal volume of ice-cold methanol, and were loaded on a HPLC for analysis.
(§1) Samples were analyzed by HPLC using 5μ C-18, 4.6×250 mm Phenomenex® Columbus column (Phenomenex USA, CA). The mobile phase consisted of buffer A (25 mM potassium phosphate with 5 mM tetrabutylammonium dihydrogen phosphate pH 6.3) and buffer B (100% methanol).

[1] = target: T2, carboxylesterase 1 (CES1) (Homo sapiens, UniProt P23141); assay: CES1 hydrolysis assay; format: in vitro ADME; settings: for CES1 hydrolysis: 100 μM compound, 37° C.
T2 construct: purchased R & D Systems (Minneapolis, Minn.)
T2 sequence (P23141 18-567): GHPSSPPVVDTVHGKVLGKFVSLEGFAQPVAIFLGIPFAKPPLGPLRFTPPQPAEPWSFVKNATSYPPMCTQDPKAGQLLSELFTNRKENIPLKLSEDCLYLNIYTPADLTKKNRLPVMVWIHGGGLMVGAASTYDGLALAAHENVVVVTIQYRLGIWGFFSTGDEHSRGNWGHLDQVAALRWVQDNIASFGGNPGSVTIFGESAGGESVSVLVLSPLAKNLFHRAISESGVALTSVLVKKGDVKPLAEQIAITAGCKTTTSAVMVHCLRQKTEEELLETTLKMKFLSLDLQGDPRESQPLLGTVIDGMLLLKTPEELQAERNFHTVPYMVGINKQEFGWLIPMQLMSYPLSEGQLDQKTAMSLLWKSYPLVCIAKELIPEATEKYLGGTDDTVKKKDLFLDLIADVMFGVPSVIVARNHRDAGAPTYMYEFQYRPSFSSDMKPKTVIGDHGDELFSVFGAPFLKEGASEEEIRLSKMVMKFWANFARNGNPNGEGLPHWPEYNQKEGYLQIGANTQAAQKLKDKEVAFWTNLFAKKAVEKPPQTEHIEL
Procedure: CES1 assay was performed at 37° C. in the reaction mixture containing 50 mM Tris/HCl buffer pH 7.5 and 100 μM of the compound. Reaction was started by addition of the CES1 to the final concentration 0.01 μg/mL. 100 μL aliquots were taken after 0.5 min, 3 hrs and 21 hrs of the incubation and the reaction was stopped by mixing with 100 μl of the ice-cold methanol prior to HPLC analysis.
as §1

HCV genotype 1b replicon = assay: HCV Replicon Assay; format: cell-based; settings: Zluc cells (Huh-7-derived, HCV genotype 1b replicon, luciferase reporter), 72 hours; read-out: HCV Replicon EC50
Outline: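 Zluc Huh-7 cells with HCV genotype 1b replicon and luciferase reporter treated with 5-fold dilutions (100 μM to 0.0000512 μM final) in duplicate, or at 1 and 10 μM. Luminescence read with ONE-glo; EC50 from dose-response fits, or % inhibition at the fixed concentrations.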

Zluc cells [2] = test system: Zluc cells
Huh-7 cells = assay: Release of active metabolite in Huh-7 cells; format: in vitro ADME, human; settings: Huh-7 cells, AUC0-72
Procedure: Huh-7 cells were plated in 1 mL culture medium (DMEM, containing glucose, L-glutamine and sodium pyruvate, 10% FBS, 100 IU/mL penicillin, 100 μg/mL streptomycin, 2 mM GlutaMAX, 1% MEM non-essential amino acids) at the concentration 0.8, 0.4 and 0.2 million cells per well on 6 well plates for 24, 48 and 72 hr treatment, respectively. Plated cells were incubated overnight at 37° C. in an incubator.
The following morning compounds was diluted to 20 μM from a stock solution in DMSO in fresh culture medium pre-warmed to 37° C. and 1 mL of the solution/well was added to cells. A final medium volume per well was 2.0 mL, Compound concentration in well was 10 μM and final DMSO concentration was 0.1%.
After 24, 48 or 72 hr, the medium was carefully removed and cell monolayers were washed twice with 2 mL ice-cold PBS per well. Following the last wash, all PBS was carefully removed and 1.0 mL of extraction solution (ice-cold 70% methanol) added. The plate was tightly covered with Parafilm, plastic plate cover and Parafilm again and an intracellular content was extracted at −20° C. for 24 hr.
After 24 hr extracts were transferred into polypropylene microfuge tubes and dried on a refrigerated centrivap concentrator. Dry residues were reconstituted in 250 μL of HPLC-grade water and centrifuged at 16,000×g for 10 min. Aliquots (100 μL each) of the supernatants were transferred into a 96 well plate and internal standard (4 ng/mL final concentration) was added as the internal standard (IS) for LC-MS/MS analysis.

genotype 1b HCV replicon = assay: genotype 1b HCV replicon-bearing Huh-7 cells (Table 5); format: cell-based; settings: Hepatitis C virus
From the text: In vivo Z4 and Z2 appear to be effectively liver-targeted with a high liver:plasma ratio of drug metabolites. Both prodrugs are readily converted to the triphosphate (TP) metabolite in the liver of mice and monkey producing more TP than GS-7977. […] The in vitro antiviral inactivity of Z4 and Z2 is thought to reflect an inability of Huh-7 replicon cells to metabolize the prodrug moiety.

[3] = Stability in simulated intestinal fluid; format: in vitro ADME; settings: 100 μM, 2 hours at 37° C., percent of the peak area at time zero
Outline: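 Compounds at 100 μM final, in duplicate, kept 2 h at 37° C in USP gastric fluid (pepsin) or intestinal fluid (pancreatin). Quenched with cold acetonitrile, supernatant analysed by C-18 HPLC, UV 252 nm. Remaining compound expressed as percent of time-zero peak area.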

[4] = Stability in fresh human whole blood; format: in vitro ADME; settings: 0.5 μM, percent unchanged test compound
Outline: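 Test compound at 0.5 μM was incubated at 37 °C in fresh human K2EDTA whole blood, stored at 2–8 °C and used within 7 days, in triplicate. Samples taken at 0, 0.5, 1 and 2 h were quenched in cold acetonitrile containing internal standard and analysed by LC-MS/MS. Percent unchanged compound was derived from peak-area ratios.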

Stability in mouse blood = format: in vitro ADME; settings: on ice, percent unchanged test compound
Outline: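 Test compound at 0.5 μM final in whole blood, held on ice; sampled at 0, 0.5 and 1 hr in triplicate. Samples quenched with acetonitrile containing internal standard and analysed by LC-MS/MS; percent unchanged compound from peak area ratio to internal standard.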

[5] = Stability in liver subcellular fractions (microsomes); format: in vitro ADME, human; settings: 10 μM, 1.0 mg/mL microsomal protein, NADPH, 60 min, percent unchanged test compound
Procedure: Stability of compounds were determined in subcellular fractions (microsomes) of human liver in duplicate for each matrix. Pooled liver microsomal proteins (1.0 mg/mL), suspended in incubation buffer (100 mM potassium phosphate, pH 7.4, 5 mM MgCl2, and 0.1 mM EDTA), were preincubated for 5 min at 37° C. with 10 μM of a test compound from a 10 mM stock solution in DMSO (final DMSO concentration was 0.1%); the reaction was initiated by the addition of NADPH (3 mM final concentration). At specific times (0 and 60 min), 0.1 mL samples were taken and the reaction terminated by the addition of 4 volumes of stop solution (acetonitrile with 500 ng/mL carbutamide as an internal standard). The samples were vortexed for 30 sec and then centrifuged at 16,000 g for 10 min. 100 μL of supernatants were transferred to 96 deep-well plates preloaded with 100 μL distilled water and analyzed after mixing by LC-MS/MS. The MS peak area ratio of the test compounds versus the internal standard was calculated and percent unchanged test compound over 60 minutes was calculated using this ratio.

fresh human hepatocytes = assay: Release of active metabolite in fresh human hepatocytes; format: in vitro ADME; settings: 10 μM compound; for FHH TP Cmax: fresh human hepatocytes; for FHH TP AUC: fresh human hepatocytes, 6, 24 and 48 hours
Outline: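 Overnight-acclimatized hepatocytes (0.8 million cells/well human, 0.5 million mouse) incubated at 37 °C with 10 μM test compound (0.1% DMSO). Sampled at 6, 24, 48 h (human) or 1, 4, 8, 12, 24 h (mouse); cells washed, extracted in cold 70% methanol, intracellular content quantified by LC-MS/MS with internal standard.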

Zluc cells [6] = assay: cytotoxicity evaluation (CellTiter-Blue Cell Viability Assay); settings: read-out: HCV Replicon CC50; Zluc cells, CellTiter-Blue
[7] = Stability in simulated gastric fluid; format: in vitro ADME; settings: 100 μM, 2 hours at 37° C., percent of the peak area at time zero
Procedure: Simulated gastric and intestinal fluids containing pepsin and pancreatin respectively were prepared according to the U.S. Pharmacopoeia USP291 procedure (www.pharmacopeia.cn/v29240/usp29nf24s0_ris1s126.html). Compounds (final concentration 100 μM) were incubated in duplicate in the appropriate fluid for 2 hours at 37° C. The samples were quenched with 200 μl cold acetonitrile, vortexed for 30 seconds and then centrifuged at 16,100 g for 10 min. The supernatants were analyzed by HPLC on a C-18 column with UV detection at 252 nm. The time 0 samples were prepared by adding SGF or SIF fluid to the quenching solvent followed by the test compound. Stability of the compounds was determined by peak area of the test compounds after incubation and calculated as percent of the peak area observed at time zero.

CC(C)OC(=O)[C@H](C)N[P@@](=O)(OC[C@H]1O[C@@H](n2ccc(=O)[nH]c2=O)[C@](C)(F)[C@@H]1O)Oc1ccccc1 [PSI-7076]
hydrolysis by CatA (in words) (cathepsin A (CatA)): hydrolyzed | hydrolysis by CES1 (in words) [1]: hydrolyzed

CCOc1nc(N)nc2c1ncn2[C@@H]1O[C@@H]2COP(=O)(OCCSSC(C)(C)C)O[C@H]2[C@@]1(C)O (single isomer, unassigned; diastereomer 1) [Compound 23 Diastereomer 1]
EC50 (HCV genotype 1b replicon): < 250 nM | CC50 (Zluc cells [2]): < 50000 nM

CCOc1nc(N)nc2c1ncn2C1OC2COP(=O)(OCC(NC(=O)OC)C(C)(C)C)OC2C1(C)F (single isomer, unassigned; diastereomer 1) [Compound 10 Diastereomer 1]
EC50 (HCV genotype 1b replicon): 250 to 1000 nM | CC50 (Zluc cells [2]): > 50000 nM

CC(C)OC(=O)[C@H](C)N[P@](=O)(OC[C@H]1O[C@@H](n2ccc(=O)[nH]c2=O)[C@](C)(F)[C@@H]1O)Oc1ccccc1 [GS-7977]
Huh-7 AUC0-72 (Huh-7 cells): 63555 pmol * hr/10^6cells | hydrolysis by CatA (in words) (cathepsin A (CatA)): hydrolyzed | CatA hydrolysis (cathepsin A (CatA); 100 μM compound, 37° C., 18 h): 100% @ 18 h | CatA cleavage efficiency relative to RP diastereoisomer (cathepsin A (CatA); GS-7977 (SP) versus its RP diastereoisomer): 10 times | hydrolysis by CES1 (in words) [1]: hydrolyzed | CES1 hydrolysis ([1]; 3 h): 12%/3 h; | CES1 hydrolysis ([1]; 21 h): 15%/21 h | EC50 (genotype 1b HCV replicon): 250 nM

CCOc1nc(N)nc2c1ncn2C1OC2COP(=O)(Oc3ccc(CC(NC(=O)OC)C(=O)OC(C)C)cc3)OC2C1(C)F (single isomer, unassigned; diastereomer 1) [Compound 13 Diastereomer 1]
EC50 (HCV genotype 1b replicon): < 250 nM | Stability SIF [3]: 72% | Stability WB_Human (37° C.; 2 hr) [4]: 29% | Stability WB_Mouse (ice; 1 hr) (Stability in mouse blood): 1% | Stability HLM (1 hr) [5]: 0.4% | FHH TP Cmax (fresh human hepatocytes): 44 pmol/mill cells | FHH TP AUC (fresh human hepatocytes): 1632 pmol · hr/mill cells | CC50 (Zluc cells [6]): > 50000 nM

CCOC(=O)COP1(=O)OC[C@H]2O[C@@H](n3cnc4c(OCC)nc(N)nc43)[C@](C)(F)[C@@H]2O1 (single isomer, unassigned; diastereomer 1) [Compound 7 Diastereomer 1]
EC50 (HCV genotype 1b replicon): < 250 nM | Stability SGF [7]: 87% | Stability SIF [3]: 50% | Stability WB_Human (37° C.; 2 hr) [4]: 25% | Stability WB_Mouse (ice; 1 hr) (Stability in mouse blood): 1% | Stability HLM (1 hr) [5]: 0.5% | FHH TP Cmax (fresh human hepatocytes): 31 pmol/mill cells | FHH TP AUC (fresh human hepatocytes): 377 pmol · hr/mill cells | CC50 (Zluc cells [6]): > 50000 nM

CCOc1nc(N)nc2c1ncn2[C@@H]1O[C@@H]2COP(=O)(OCCSC(=O)C(C)(C)CO)O[C@H]2[C@@]1(C)OC(C)=O (single isomer, unassigned; diastereomer 2) [Compound 16 Diastereomer 2]
EC50 (HCV genotype 1b replicon): < 250 nM | CC50 (Zluc cells [2]): < 50000 nM
